# Patent US7820624B2, “Peptide ligands” (ICH Productions Limited, priority 2003, dated 2010)
# Legend:
# [1] = test system: human monocyte-derived immature dendritic cells; experiment: Whole cell flow cytometry (FACS) of phage clone binding; conditions: day 4 cells, several donors; versus phage clone with no insert
# Description: 5×10^4 Dendritic cells and 2×10^11 of an individual purified phage clone were each blocked at 4° C. for 30 mins in 1 ml MBSA (2% Marvel, 5% BSA in PBS), with mixing on a turntable. The dendritic cells were spun down at 2000 rpm, a gentle centrifugation to pellet cells without lysing them, for 5 min at 4° C., and the pellet resuspended in the blocked phage solution. The mixture was held on ice for 30 min to allow the phage to bind, before spinning down the cells, removing the supernatant and washing the cells with 1 ml 1% BSA, 0.05% Tween20-PBS. The cells were spun again, the supernatant removed, and the cells fixed in 1 ml 1% paraformaldehyde for 30 min on ice. […] The cells were incubated with the antibody on ice for 30 min before spinning down, washing twice in 0.05% Tween20, 1% BSA PBS, resuspending in […] and measuring the percentage cells positive for FITC by FACS analysis.
# Alternatively, 5×10^4 dendritic cells were mixed with 2×10^11 of individual phage clones as described for panning of the phage library. The mixture of phage and DC suspensions was kept on ice for 30 min before cells were centrifuged to remove the supernatant and washed with 1 ml 1% BSA, 0.05% Tween 20-PBS. The cells were again pelleted by centrifugation, then fixed for flow cytometry analysis by resuspending in 1 ml of 1% paraformaldehyde for 30 min on ice. […] The cells were incubated with the antibody on ice for 30 min then pelleted by centrifugation, washed twice in 0.05% Tween 20, 1% BSA PBS and resuspended in 200 μl PBS. The percentage of FITC-positive cells was determined by flow cytometry using a Epics XL flow cytometer (Beckman Coulter, High Wycombe, UK.).
# [2] = test system: human monocyte-derived immature dendritic cells; experiment: LID (lipid-peptide-DNA) transfection of immature dendritic cells, EGFP by FACS and 7AAD cell death; type: cell-based; conditions: day 4 cells, lipofectin, lipid:DNA 0.75:1, peptide:DNA 7:1 (FIG. 5a)
# Description: (§1) Lipopolyplex (LID) transfection complexes comprising lipid (L), peptide (in the form of a peptide derivative as described above) (I) and DNA (D) were prepared. The lipid component was Lipofectin or Lipofectamine 2000 (Invitrogen Ltd, Paisley, UK), the peptide component was a synthesized peptide A to F, 6 or 6J derivative, as described in Table 7 above, and the DNA was the plasmid pEGFP-N1 (Clontech, BD Biosciences, Palo Alto, Calif.)
# In the transfection complex, peptide component to DNA charge ratios (+/−) were used at 1.5:1, 3:1 and 7:1. The lipid
# (§2) component (Lipofectin or Lipofectamine 2000) was maintained at a constant proportion, by weight, relative to DNA of 0.75:1. Prior to making transfection complexes, in method A the lipid component was diluted to a concentration of 15 μg per ml, the peptide was prepared at 0.1 mg/ml and the DNA (plasmid pEGFP-N1, BD Biosciences, Cowley, UK, prepared using EndoFree plasmid kit, Qiagen Ltd, Crawley, UK) was at 10 μg per ml. All dilutions were performed with OptiMEM reduced serum tissue culture medium (Life Technologies Ltd, Paisley, UK). In method B prior to making transfection complexes the lipid component was diluted to a concentration of 30 μg per ml, the peptide was prepared at 0.1 mg/ml and the DNA (plasmid pEGFP-N1, BD Biosciences, Cowley, UK, prepared using EndoFree plasmid kit, Qiagen Ltd, Crawley, UK) was at […]. All dilutions were performed in serum-free RPMI.
# (§3) Transfection complexes were made by mixing the components in the order 1) lipid (50 μl) then 2) peptide (70 μl) and finally 3) DNA (50 μl), then diluting with OptiMEM or serum free RPMI, as appropriate, to a concentration relative to the DNA component of 2 μg DNA per […] (OptiMEM) or 500 μl (RPMI).
# Immature day 6 dendritic cells, obtained as described in Example 1(v) above, were plated into a 48 well plate at 5×10^4 cells per well in complete media and allowed to settle for 3 hours at 37° C. 300 μl or 500 μl (as appropriate) of the transfection complex obtained as described above was added to each well. The transfection complex was applied to cells within 5 minutes of preparation. Transfection incubations were performed at 37° C. for 4 hours, after which the medium was replaced with complete medium with cytokines for 24 hours. Cells were harvested by scraping, spun down and resuspended in 300 μl PBS for FACS analysis to determine the percentage of cells positive for the reporter gene EGFP (Enhanced Green Fluorescent Protein). Each transfection was performed in triplicate wells.
# (§4) For transfection of monocytes, peripheral blood monocytes were prepared using Lymphoprep centrifugation and CD14 bead selection as described in the method for preparation of monocyte derived dendritic cells in Example 1(v) above. These cells were then transfected as described as described for dendritic cells except that transfection of the monocytes (and also of day 3 or day 4 immature dendritic cells) was carried out in solution.
# [3] = Titration of phage clone binding to blocked plastic (control)
# Description: (§5) The dendritic cells were spun down at 2000 rpm, for 5 min at 4° C., and resuspended in the phage solution, allowing the phage to bind for 1 hour on ice with occasional mixing. The cells were then washed in PBS-Tween 20 (0.05%) three times before eluting phage with 166 μl TBS pH5.5. for 10 min on ice. The eluate was neutralised with […] Tris-HCl pH 8, the cells were spun down, and the supernatant removed to be stored as eluate. The cell pellet was resuspended in 200 μl of cell lysis buffer (30 mM Tris-HCl, 1 mM EDTA pH 8.0) for 1 hour on ice, with shaking. The cell debris was removed by spinning at 5000 rpm for 5 min and the supernatant recovered. The phage in the eluate and the cell lysate were titred by measuring plaque forming units (pfu) in E. coli ER2738 as described in the NEB C7C technical bulletin.
# (§6) The titration of phage clone binding was carried out using human and mouse dendritic cells, with binding to plastic as a control. The human cells were obtained from donors as stated below.
# [4] = test system: human peripheral blood monocytes; experiment: LID transfection of monocytes, EGFP by FACS and cell death; type: cell-based; conditions: FIG. 7a
# Description: as §1, §2, §3, §4
# [5] = test system: mouse dendritic cells; experiment: Titration of phage clone binding to mouse dendritic cells; conditions: 2×10^11 phage
# Description: as §5, §6
# [6] = test system: human monocyte-derived immature dendritic cells; experiment: Titration of phage clone binding to human dendritic cells
# Description: Phage were recovered and titred from each round of selection as follows. 2×10^11 Blocked phage were added to 5×10^4 blocked monocyte-derived immature dendritic cells for 1 hour on ice before washing cells three times with 0.05% Tween20-PBS, eluting phage with TBS pH5.5, and lysing cells to harvest the phage remaining bound. The numbers of phage harvested by cell lysis were calculated as plaque forming units (pfu). […] Sequencing of the bound phage shown in FIG. 1 identified the peptides as APSNSTA [SEQ. ID. NO.:15], QLLTGAS [SEQ. ID. NO.:30], TARDYRL [SEQ. ID. NO.:31], FQSQYQK [SEQ. ID. NO.:26], PLMPSLS [SEQ. ID. NO.:24], FPRAPHH [SEQ. ID. NO.:32], MASISMK [SEQ. ID. NO.:27], DWWHTSA [SEQ. ID. NO.:28], SHVKLNS [SEQ. ID. NO.:29], and SPALKTV [SEQ. ID. NO.:16].
# as §5, §6
substance,measurement,setting,value
FPRAPHH (Synthetic peptide binding to dendritic cells),Percentage of cells positive for bound phage (FITC) by FACS,[1],a higher percentage of cells positive for bound phage than the controls with no insert
same,"Transfection efficiency, % positive cells",[2],11%
same,"Phage titre (pfu), plastic",[3],1860 pfu ×10^3
same,Percentages of cells transfected (ranking),[4],highest percentages of cells transfected
same,"Phage titre (pfu), mouse DCs",[5],13980 pfu ×10^3
same,"Phage harvested by cell lysis (pfu), human donor S","[6]; 2×10^11 phage on 5×10^4 cells, 1 hour on ice, donor S",19400 pfu ×10^3
same,"Phage harvested by cell lysis (pfu), human donor one","[6]; 2×10^11 phage on 5×10^4 cells, 1 hour on ice, donor one",15920 pfu ×10^3
same,"Phage harvested by cell lysis (pfu), human donor two","[6]; 2×10^11 phage on 5×10^4 cells, 1 hour on ice, donor two",3200 pfu ×10^3
same,Extent of phage clone binding in titrations,"[6]; all titrations, including mouse dendritic cells, versus phage with no insert",bound in highest numbers in all titrations
